# Reference: US12077524B2, “Crystal of pyrrolidine compound” (MITSUBISHI TANABE PHARMA CORPORATION, priority 2018, dated 2024)
# Counter-ions that a name gives are not always drawn. Like-named read-outs stand apart in the source and are kept apart here.
# Legend:
# Type in all cases: physicochemical
# [1] = Hygroscopicity or deliquescency evaluation (moisture adsorption, DVS)
# Description: Hygroscopicity or deliquescency was evaluated as follows by using a moisture adsorption measurement device DVS-1 or DVS-intrinsic (Surface Measurement Systems Limited). Each sample was placed into a cell of which the tare weight had been corrected in advance, and the cell was hung on the precision balance of said device to precisely measure the weight at the start of measurement. The humidity was changed in a stepwise manner, the weight change was recorded with time, and the equilibrium weight was calculated at each humidity. On the basis of the weight of anhydride converted from the amount of water at a dried condition (0% RH) or at the start of measurement observed by an alternative method, the weight change rate at each humidity was calculated.
# [2] = Thermal stability evaluation (TG/DTA); details: for Thermal stability TG: weight change: 10 K/min, nitrogen
# Description: Thermal stability was evaluated by using a thermogravimetry/differential thermal analyzer TG/DTA7200 (SII NanoTechnology Inc.) under the following conditions. • Rate of temperature increase: 10 K/min • Atmosphere: nitrogen 200 mL/min <Hygroscopicity or Deliquescency Evaluation>
# [3] = Chemical stability evaluation (storage 1 week, related substances by HPLC, observation of sample)
# Description: Each sample was stored at 60° C. under a sealed condition and at 60° C. under 75% RH for 1 week, an increase or decrease of related substances after the storage was calculated by high-performance liquid chromatographic method on the basis of the area percentage of each peak. Also, the condition of each sample after the storage was observed.
structure (smiles),measurement,setting,value
"COC[C@H]1CN(C(=O)[C@]2(F)CN(C3CCCC3)C[C@H]2c2ccc(OC)cc2)C[C@@H]1c1ccc(C(F)(F)F)cc1N1CCC(C(=O)O)CC1 [Amorphous of free form, 1-{2-[(3S,4R)-1-[(3R,4R)-1-cyclopentyl-3-fluoro-4-(4-methoxyphenyl)pyrrolidine-3-carbonyl]-4-(methoxymethyl)pyrrolidin-3-yl]-5-(trifluoromethyl)phenyl}piperidine-4-carboxylic acid]",Hygroscopicity or Deliquescency: Weight change under 90% RH,[1],1.8%
same,Thermal stability TG: weight change,[2]; 30-130° C.,2.2%
"COC[C@H]1CN(C(=O)[C@]2(F)CN(C3CCCC3)C[C@H]2c2ccc(OC)cc2)C[C@@H]1c1ccc(C(F)(F)F)cc1N1CCC(C(=O)O)CC1 [Amorphous of hydrochloride, 1-{2-[(3S,4R)-1-[(3R,4R)-1-cyclopentyl-3-fluoro-4-(4-methoxyphenyl)pyrrolidine-3-carbonyl]-4-(methoxymethyl)pyrrolidin-3-yl]-5-(trifluoromethyl)phenyl}piperidine-4-carboxylic acid]",Chemical stability: condition of sample after the storage,"[3]; 60° C., 75% RH, 1 week",deliquescent
same,Deliquescency,[1],deliquescent
same,Hygroscopicity or Deliquescency: Weight change under 90% RH,[1],11.87%
same,Deliquescency,[1]; listed as hydrochloride of the Pyrrolidine compound A,has deliquescency
same,Hygroscopicity or Deliquescency: observation (deliquescent),[1]; under 90% RH,deliquescent
same,Thermal stability TG: weight change,[2]; 30-150° C.,4.8%
"COC[C@H]1CN(C(=O)[C@]2(F)CN(C3CCCC3)C[C@H]2c2ccc(OC)cc2)C[C@@H]1c1ccc(C(F)(F)F)cc1N1CCC(C(=O)O)CC1 [Crystal of free form, 1-{2-[(3S,4R)-1-[(3R,4R)-1-cyclopentyl-3-fluoro-4-(4-methoxyphenyl)pyrrolidine-3-carbonyl]-4-(methoxymethyl)pyrrolidin-3-yl]-5-(trifluoromethyl)phenyl}piperidine-4-carboxylic acid]",Chemical stability,[3],poor
"COC[C@H]1CN(C(=O)[C@]2(F)CN(C3CCCC3)C[C@H]2c2ccc(OC)cc2)C[C@@H]1c1ccc(C(F)(F)F)cc1N1CCC(C(=O)O)CC1 [Present crystal, 1-{2-[(3S,4R)-1-[(3R,4R)-1-cyclopentyl-3-fluoro-4-(4-methoxyphenyl)pyrrolidine-3-carbonyl]-4-(methoxymethyl)pyrrolidin-3-yl]-5-(trifluoromethyl)phenyl}piperidine-4-carboxylic acid]",Deliquescency,[1]; listed as Phosphoric acid Form B crystal,not deliquescent
same,Thermal stability TG: weight change,[2]; 30-230° C.,No change
same,Weight change on heating,[2]; even at 200° C. or more,did not show a weight change
